Laboratory results: PubChem BioAssay AID1259407 (Chemical Carcinogenesis Research Information System (CCRIS), 2018)
The source made the active and inactive calls. No rule for the calls is given here.

System: CCRIS mutagenicity, Ames/micronucleus/aberration tests
Test: CCRIS mutagenicity studies
[1] = Test System: AMES SALMONELLA TYPHIMURIUM, Strain/Indicator: TA100, Metabolic Activation: NONE, Method: STANDARD PLATE
[2] = Test System: E. COLI, Strain/Indicator: WP2 UVRA, Metabolic Activation: NONE, Method: STANDARD PLATE
[3] = Test System: AMES SALMONELLA TYPHIMURIUM, Strain/Indicator: TA98, Metabolic Activation: NONE, Method: STANDARD PLATE

## O=CNc1nc(-c2ccc([N+](=O)[O-])o2)cs1
[1]
  mutagenic call: active; positive
Test System: AMES SALMONELLA TYPHIMURIUM, Strain/Indicator: TA100, Metabolic Activation: RAT, LIVER, S-9, KC500 OR PHENOBARBITAL, Method: LIQUID SUSPENSION
  mutagenic call: active; positive
Test System: E. COLI, Strain/Indicator: WP2, Metabolic Activation: NONE, Method: SPOT
  mutagenic call: active; positive
Test System: E. COLI, Strain/Indicator: WP2, Metabolic Activation: NONE, Method: STANDARD PLATE
  mutagenic call: active; positive
Test System: E. COLI, Strain/Indicator: WP2 UVRA, Metabolic Activation: HAMSTER, LIVER, S-9, AROCLOR 1254, Method: STANDARD PLATE
  mutagenic call: active; positive
Test System: E. COLI, Strain/Indicator: WP2 UVRA, Metabolic Activation: HAMSTER, LIVER, S-9, Method: STANDARD PLATE
  mutagenic call: active; positive
Test System: E. COLI, Strain/Indicator: WP2 UVRA, Metabolic Activation: MOUSE, LIVER, S-9, AROCLOR 1254, Method: STANDARD PLATE
  mutagenic call: active; positive
Test System: E. COLI, Strain/Indicator: WP2 UVRA, Metabolic Activation: MOUSE, LIVER, S-9, Method: STANDARD PLATE
  mutagenic call: active; positive
Test System: E. COLI, Strain/Indicator: WP2 UVRA, Metabolic Activation: NONE, Method: SPOT
  mutagenic call: active; positive
[2]
  mutagenic call: active; positive
Test System: E. COLI, Strain/Indicator: WP2 UVRA, Metabolic Activation: RAT, LIVER, S-9, AROCLOR 1254, Method: STANDARD PLATE
  mutagenic call: active; positive
Test System: E. COLI, Strain/Indicator: WP2 UVRA, Metabolic Activation: RAT, LIVER, S-9, Method: STANDARD PLATE
  mutagenic call: active; positive

## NC(=O)OC[C@H](O)[C@@H](O)[C@H](N)C(=O)N[C@H](C(=O)[O-])[C@H]1O[C@@H](n2cc(C(=O)[O-])c(=O)[nH]c2=O)[C@H](O)[C@@H]1O.[Zn+2]
[1]
  mutagenic call: active; positive
Test System: AMES SALMONELLA TYPHIMURIUM, Strain/Indicator: TA100, Metabolic Activation: S-9 MIX, Method: STANDARD PLATE
  mutagenic call: active; positive

## O=C1OC(=O)c2c(Br)c(Br)c(Br)c(Br)c21
Test System: AMES SALMONELLA TYPHIMURIUM, Strain/Indicator: TA98, Metabolic Activation: HAMSTER, LIVER, S-9, AROCLOR 1254 (10%), Method: PREINCUBATION
  mutagenic call: inactive; negative
Test System: AMES SALMONELLA TYPHIMURIUM, Strain/Indicator: TA98, Metabolic Activation: NONE, Method: PREINCUBATION
  mutagenic call: inactive; negative
Test System: AMES SALMONELLA TYPHIMURIUM, Strain/Indicator: TA98, Metabolic Activation: RAT, LIVER, S-9, AROCLOR 1254 (10%), Method: PREINCUBATION
  mutagenic call: inactive; negative
Test System: AMES SALMONELLA TYPHIMURIUM, Strain/Indicator: TA100, Metabolic Activation: HAMSTER, LIVER, S-9, AROCLOR 1254 (10%), Method: PREINCUBATION
  mutagenic call: inactive; negative
Test System: AMES SALMONELLA TYPHIMURIUM, Strain/Indicator: TA100, Metabolic Activation: NONE, Method: PREINCUBATION
  mutagenic call: inactive; negative
Test System: AMES SALMONELLA TYPHIMURIUM, Strain/Indicator: TA100, Metabolic Activation: RAT, LIVER, S-9, AROCLOR 1254 (10%), Method: PREINCUBATION
  mutagenic call: inactive; negative
Test System: AMES SALMONELLA TYPHIMURIUM, Strain/Indicator: TA1535, Metabolic Activation: HAMSTER, LIVER, S-9, AROCLOR 1254 (10%), Method: PREINCUBATION
  mutagenic call: inactive; negative
Test System: AMES SALMONELLA TYPHIMURIUM, Strain/Indicator: TA1535, Metabolic Activation: NONE, Method: PREINCUBATION
  mutagenic call: inactive; negative
Test System: AMES SALMONELLA TYPHIMURIUM, Strain/Indicator: TA1535, Metabolic Activation: RAT, LIVER, S-9, AROCLOR 1254 (10%), Method: PREINCUBATION
  mutagenic call: inactive; negative
Test System: AMES SALMONELLA TYPHIMURIUM, Strain/Indicator: TA1537, Metabolic Activation: HAMSTER, LIVER, S-9, AROCLOR 1254 (10%), Method: PREINCUBATION
  mutagenic call: inactive; negative
Test System: AMES SALMONELLA TYPHIMURIUM, Strain/Indicator: TA1537, Metabolic Activation: NONE, Method: PREINCUBATION
  mutagenic call: inactive; negative
Test System: AMES SALMONELLA TYPHIMURIUM, Strain/Indicator: TA1537, Metabolic Activation: RAT, LIVER, S-9, AROCLOR 1254 (10%), Method: PREINCUBATION
  mutagenic call: inactive; negative

## CC(=O)O[C@H]1[C@H](OC(C)=O)COC(Nc2ccc([N+](=O)[O-])cc2)[C@@H]1OC(C)=O (stereo partly specified)
[1]
  mutagenic call: inactive; negative

## CCN(CC)CC#CC(C)(C)OC(=O)C(O)(c1ccccc1)C1CCCCC1 (stereo unspecified)
[3]
  mutagenic call: inactive; negative
Test System: AMES SALMONELLA TYPHIMURIUM, Strain/Indicator: TA98, Metabolic Activation: RAT, LIVER, S-9, PHENOBARBITAL AND 5,6-BENZOFLAVONE, Method: STANDARD PLATE
  mutagenic call: inactive; negative
[1]
  mutagenic call: inactive; negative
Test System: AMES SALMONELLA TYPHIMURIUM, Strain/Indicator: TA100, Metabolic Activation: RAT, LIVER, S-9, PHENOBARBITAL AND 5,6-BENZOFLAVONE, Method: STANDARD PLATE
  mutagenic call: inactive; negative
Test System: AMES SALMONELLA TYPHIMURIUM, Strain/Indicator: TA1535, Metabolic Activation: NONE, Method: STANDARD PLATE
  mutagenic call: inactive; negative
Test System: AMES SALMONELLA TYPHIMURIUM, Strain/Indicator: TA1535, Metabolic Activation: RAT, LIVER, S-9, PHENOBARBITAL AND 5,6-BENZOFLAVONE, Method: STANDARD PLATE
  mutagenic call: inactive; negative
Test System: AMES SALMONELLA TYPHIMURIUM, Strain/Indicator: TA1537, Metabolic Activation: NONE, Method: STANDARD PLATE
  mutagenic call: inactive; negative
Test System: AMES SALMONELLA TYPHIMURIUM, Strain/Indicator: TA1537, Metabolic Activation: RAT, LIVER, S-9, PHENOBARBITAL AND 5,6-BENZOFLAVONE, Method: STANDARD PLATE
  mutagenic call: inactive; negative
[2]
  mutagenic call: inactive; negative
Test System: E. COLI, Strain/Indicator: WP2 UVRA, Metabolic Activation: RAT, LIVER, S-9, PHENOBARBITAL AND 5,6-BENZOFLAVONE, Method: STANDARD PLATE
  mutagenic call: inactive; negative

## ClCc1c2ccccc2cc2c1ccc1ccccc12
[1]
  mutagenic call: active; positive

## CCNC(=O)CC[C@H](N)C(=O)O
Test System: AMES SALMONELLA TYPHIMURIUM, Strain/Indicator: TA97, Metabolic Activation: NONE, Method: PREINCUBATION
  mutagenic call: inactive; negative
Test System: AMES SALMONELLA TYPHIMURIUM, Strain/Indicator: TA97, Metabolic Activation: RAT, LIVER, S-9, AROCLOR 1254, Method: PREINCUBATION
  mutagenic call: inactive; negative
Test System: AMES SALMONELLA TYPHIMURIUM, Strain/Indicator: TA102, Metabolic Activation: NONE, Method: PREINCUBATION
  mutagenic call: inactive; negative
Test System: AMES SALMONELLA TYPHIMURIUM, Strain/Indicator: TA102, Metabolic Activation: RAT, LIVER, S-9, AROCLOR 1254, Method: PREINCUBATION
  mutagenic call: inactive; negative

## Cc1cc2nc3cc(C)c(N)cc3[n+](-c3ccccc3)c2cc1N
Test System: AMES SALMONELLA TYPHIMURIUM, Strain/Indicator: TA98, Method: PREINCUBATION
  mutagenic call: active; positive
Test System: AMES SALMONELLA TYPHIMURIUM, Strain/Indicator: TA100, Method: PREINCUBATION
  mutagenic call: active; positive

## c1ccc2c(c1)-c1cc3ccc4ccccc4c3cc1[C@H]1N[C@@H]21
[3]
  mutagenic call: active; positive
[1]
  mutagenic call: active; positive
